Results: patent US20030124068A1, “Oral preparation” (priority 2000, published 2003)

What was measured:
[1] = tested on: cow tooth (having a mirror polished surface); assay: Whitening effect on immersed cow tooth, judged from photographs by a panel of 20 experts; conditions: 1M aqueous solution of the acid containing 23% sodium fluoride, pH 4; cow tooth immersed 24 hours
Experimental: Using acids different in pKa, 1M aqueous solutions containing 23% sodium fluoride were prepared, followed by adjustment to pH 4 with sodium hydroxide. After measuring their dissolving capacity, a cow tooth (having a mirror polished surface), which had been photographed in advance, was immersed in each solution for 24 hours. After the treatment, the tooth was taken out from the solution and photographed again. The color of the tooth before immersion was compared with that after immersion. The comparison was made as follows: A panel of 20 experts was asked to see the photographs of the tooth before and after treatment and to evaluate it as ◯ when the teeth was whitened after the treatment, while as × when no change in color was recognized. Upon evaluation, the tooth which was whitened but lost its gloss was evaluated as ×. The preparation evaluated as ◯ by at least a half of the experts was judged effective and the others were judged ineffective.
Toothpastes as shown in Table 3 were prepared in a conventional manner. Dissolving capacity of each of their 30% aqueous solutions was measured as in Example 1. Their whitening effect was measured also as in Example 1 (by immersing in the toothpaste for 24 hours).

[2] = Dissolving capacity (HAP or FAP dissolving and CaF2 dissolving); assay type: physicochemical; conditions: 1M aqueous solution of the acid containing 23% sodium fluoride, pH 4 with sodium hydroxide; diluted to 30 wt. %, stirred 24 hours with HAP, FAP, CaF2 powder
Experimental: Dissolving capacity was measured in the following manner. Described specifically, the preparation is diluted to 30 wt. % with deionized water. The phosphorus and calcium concentrations in the solution were each determined in advance by using a calorimetric reagent and they were subtracted later. To 100 ml of the diluted solution were added hydroxyapatite (HAP), fluorapatite (FAP) and CAF2, each in the powdery form. The resulting mixture was stirred for 24 hours by a magnetic stirrer and the reaction mixture was filtered to remove the solid matter. The phosphorus and calcium concentrations in the solution were determined by a calorimetric reagent.
As the calorimetric reagents for calcium and phosphorus, Calcium Test Wako (for determination of calcium, product of Wako Pure Chemicals) and P Test Wako (for determination of inorganic phosphorus, product of Wako Pure Chemicals) were employed, respectively.

[3] = 25° C.; acid added; cited from earlier work

SMILES	Whitening effect [1]	Dissolving capacity [2]	pKa [3]
CC(O)C(=O)O (centres unmarked) [Lactic acid]	∘	∘	–
O=C(O)CC(O)C(=O)O (centres unmarked) [Malic acid]	∘	∘	–
O=S(=O)(O)O [Sulfuric acid, reference compound]	–	∘	–
O=P(O)(O)O [Phosphoric acid, reference compound]	–	∘	–
O=C(O)C(O)C(O)C(=O)O (centres unmarked) [Tartaric acid]	∘	–	2.99
O=C(O)CC(O)(CC(=O)O)C(=O)O [Citric acid]	∘	∘	2.9
Cl [Hydrochloric acid, reference compound]	–	∘	–
CC(=O)O [Acetic acid]	∘	∘	–
